Assays:
[1] = target: Cystic fibrosis transmembrane conductance regulator (Rattus norvegicus, UniProt P34158, F508DEL); assay: Potentiation of CFTR F508del mutant in rat FRT cells assessed as increase in iodide influx in presence of forskolin; type: cell-based
[2] = test system: Cystic fibrosis transmembrane conductance regulator (Rattus norvegicus), P34158 [UNDEFINED MUTATION]; assay: Potency index, ratio of genistein EC50 to test compound EC50 for potentiation of CFTR F508del mutant in rat FRT cells assessed as increase in iodide influx in presence of forskolin; type: cell-based
[3] = test system: Cystic fibrosis transmembrane conductance regulator (Homo sapiens), P13569 [F508del]; assay: Potentiation of CD4-HRP tagged CFTR F508del mutant NBD1 (unknown origin) expressed in MDCK cells assessed as increase in chloride current by measuring fold increase in luminescence signal incubated for 24 hrs relative to control; type: cell-based; conditions: filed as activator
[4] = target: Cystic fibrosis transmembrane conductance regulator (Homo sapiens, UniProt P13569, W1282X); assay: Potentiation of CFTR W1282X mutant (unknown origin) expressed in rat FRT cells; type: cell-based
[5] = target: Cystic fibrosis transmembrane conductance regulator (Homo sapiens, UniProt P13569, F508DEL); assay: Potentiation of CFTR F508del mutant activity (unknown origin)
[6] = test system: Cystic fibrosis transmembrane conductance regulator (Homo sapiens), P13569 [F508del]; assay: Potentiation of CFTR F508del mutant (unknown origin) expressed in rat FRT cells assessed as increase in chloride current by measuring maximal effect at 30 uM in presence of forskolin relative to control; type: cell-based; conditions: filed as activator

Sequence of Cystic fibrosis transmembrane conductance regulator (Homo sapiens), P13569 [F508del] (P13569 as listed by the source): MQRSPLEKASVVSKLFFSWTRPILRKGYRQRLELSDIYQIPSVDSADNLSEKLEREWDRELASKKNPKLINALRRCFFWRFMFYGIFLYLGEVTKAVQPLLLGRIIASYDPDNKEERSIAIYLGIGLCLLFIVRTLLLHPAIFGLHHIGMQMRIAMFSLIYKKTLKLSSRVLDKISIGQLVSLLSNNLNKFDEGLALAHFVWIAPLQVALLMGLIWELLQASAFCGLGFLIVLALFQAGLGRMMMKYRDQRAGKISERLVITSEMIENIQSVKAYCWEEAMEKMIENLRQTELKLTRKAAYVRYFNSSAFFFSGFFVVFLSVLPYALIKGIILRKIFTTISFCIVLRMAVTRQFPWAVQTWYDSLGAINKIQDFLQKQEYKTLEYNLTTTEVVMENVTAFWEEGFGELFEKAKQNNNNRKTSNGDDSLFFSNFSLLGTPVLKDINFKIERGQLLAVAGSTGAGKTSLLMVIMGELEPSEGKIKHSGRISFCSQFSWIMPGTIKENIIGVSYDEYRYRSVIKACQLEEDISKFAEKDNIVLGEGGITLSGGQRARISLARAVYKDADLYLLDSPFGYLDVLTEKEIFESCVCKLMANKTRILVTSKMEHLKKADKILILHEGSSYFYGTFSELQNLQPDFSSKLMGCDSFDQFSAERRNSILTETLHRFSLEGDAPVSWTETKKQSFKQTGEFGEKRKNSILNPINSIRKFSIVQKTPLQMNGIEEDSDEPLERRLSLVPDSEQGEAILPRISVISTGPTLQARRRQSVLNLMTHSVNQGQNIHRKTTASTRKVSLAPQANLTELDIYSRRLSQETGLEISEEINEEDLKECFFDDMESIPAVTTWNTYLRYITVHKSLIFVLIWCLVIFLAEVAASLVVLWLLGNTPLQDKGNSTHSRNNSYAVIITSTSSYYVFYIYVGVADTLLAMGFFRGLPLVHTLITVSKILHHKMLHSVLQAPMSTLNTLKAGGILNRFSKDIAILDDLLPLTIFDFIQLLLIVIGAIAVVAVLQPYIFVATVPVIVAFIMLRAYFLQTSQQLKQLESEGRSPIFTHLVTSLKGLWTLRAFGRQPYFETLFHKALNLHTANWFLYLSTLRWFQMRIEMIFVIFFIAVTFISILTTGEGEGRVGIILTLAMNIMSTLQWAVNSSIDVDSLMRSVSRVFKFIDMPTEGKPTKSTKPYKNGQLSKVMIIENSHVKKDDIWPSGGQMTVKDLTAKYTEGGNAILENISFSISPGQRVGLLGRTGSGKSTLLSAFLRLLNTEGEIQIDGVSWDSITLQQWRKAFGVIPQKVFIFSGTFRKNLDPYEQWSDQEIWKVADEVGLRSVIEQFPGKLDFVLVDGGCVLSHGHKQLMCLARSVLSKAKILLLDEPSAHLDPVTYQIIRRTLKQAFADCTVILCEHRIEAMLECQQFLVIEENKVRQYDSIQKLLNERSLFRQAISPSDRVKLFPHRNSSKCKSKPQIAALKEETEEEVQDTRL
Sequence of Cystic fibrosis transmembrane conductance regulator (Homo sapiens, UniProt P13569, F508DEL) (P13569 as listed by the source): as above
Sequence of Cystic fibrosis transmembrane conductance regulator (Rattus norvegicus, UniProt P34158, F508DEL) (P34158 whole entry F508del, looked up): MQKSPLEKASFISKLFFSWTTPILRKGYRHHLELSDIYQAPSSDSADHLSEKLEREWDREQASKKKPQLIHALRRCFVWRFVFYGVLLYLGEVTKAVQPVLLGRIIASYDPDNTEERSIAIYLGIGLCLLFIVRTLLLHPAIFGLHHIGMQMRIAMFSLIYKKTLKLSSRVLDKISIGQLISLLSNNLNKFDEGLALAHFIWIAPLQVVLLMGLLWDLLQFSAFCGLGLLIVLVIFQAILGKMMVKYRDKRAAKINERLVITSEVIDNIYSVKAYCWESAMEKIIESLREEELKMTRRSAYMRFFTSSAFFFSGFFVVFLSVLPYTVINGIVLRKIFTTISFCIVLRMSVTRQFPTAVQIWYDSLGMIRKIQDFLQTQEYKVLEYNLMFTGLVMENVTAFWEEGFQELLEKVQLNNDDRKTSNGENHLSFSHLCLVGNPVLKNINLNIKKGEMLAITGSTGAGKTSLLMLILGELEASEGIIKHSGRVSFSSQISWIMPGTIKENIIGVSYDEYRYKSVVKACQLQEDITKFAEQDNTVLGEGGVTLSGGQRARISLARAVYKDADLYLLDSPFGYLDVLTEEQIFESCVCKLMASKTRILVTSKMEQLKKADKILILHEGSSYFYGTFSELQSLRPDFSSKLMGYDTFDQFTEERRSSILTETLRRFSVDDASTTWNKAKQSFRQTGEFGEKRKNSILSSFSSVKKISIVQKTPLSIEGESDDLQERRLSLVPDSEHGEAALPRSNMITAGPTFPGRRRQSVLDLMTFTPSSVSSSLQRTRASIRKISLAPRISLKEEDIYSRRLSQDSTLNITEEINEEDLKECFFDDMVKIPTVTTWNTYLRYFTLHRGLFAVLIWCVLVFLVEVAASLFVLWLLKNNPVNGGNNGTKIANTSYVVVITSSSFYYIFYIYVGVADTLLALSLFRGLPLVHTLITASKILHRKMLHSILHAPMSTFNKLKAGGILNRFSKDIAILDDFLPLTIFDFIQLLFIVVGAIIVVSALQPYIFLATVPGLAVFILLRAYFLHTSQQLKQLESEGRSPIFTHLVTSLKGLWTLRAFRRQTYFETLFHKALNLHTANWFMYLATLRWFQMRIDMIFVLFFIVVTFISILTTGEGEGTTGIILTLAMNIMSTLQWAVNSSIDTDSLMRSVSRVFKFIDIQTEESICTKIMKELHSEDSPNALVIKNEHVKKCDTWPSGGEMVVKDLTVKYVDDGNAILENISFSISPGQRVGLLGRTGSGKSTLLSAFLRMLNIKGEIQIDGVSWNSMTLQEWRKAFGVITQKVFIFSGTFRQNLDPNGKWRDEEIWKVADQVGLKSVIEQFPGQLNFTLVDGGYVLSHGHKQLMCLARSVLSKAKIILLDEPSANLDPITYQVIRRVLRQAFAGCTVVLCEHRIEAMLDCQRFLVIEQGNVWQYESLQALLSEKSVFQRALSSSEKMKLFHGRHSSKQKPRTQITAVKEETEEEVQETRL
Sequence of Cystic fibrosis transmembrane conductance regulator (Rattus norvegicus), P34158 [UNDEFINED MUTATION] (P34158 whole entry, looked up, stated change not applied): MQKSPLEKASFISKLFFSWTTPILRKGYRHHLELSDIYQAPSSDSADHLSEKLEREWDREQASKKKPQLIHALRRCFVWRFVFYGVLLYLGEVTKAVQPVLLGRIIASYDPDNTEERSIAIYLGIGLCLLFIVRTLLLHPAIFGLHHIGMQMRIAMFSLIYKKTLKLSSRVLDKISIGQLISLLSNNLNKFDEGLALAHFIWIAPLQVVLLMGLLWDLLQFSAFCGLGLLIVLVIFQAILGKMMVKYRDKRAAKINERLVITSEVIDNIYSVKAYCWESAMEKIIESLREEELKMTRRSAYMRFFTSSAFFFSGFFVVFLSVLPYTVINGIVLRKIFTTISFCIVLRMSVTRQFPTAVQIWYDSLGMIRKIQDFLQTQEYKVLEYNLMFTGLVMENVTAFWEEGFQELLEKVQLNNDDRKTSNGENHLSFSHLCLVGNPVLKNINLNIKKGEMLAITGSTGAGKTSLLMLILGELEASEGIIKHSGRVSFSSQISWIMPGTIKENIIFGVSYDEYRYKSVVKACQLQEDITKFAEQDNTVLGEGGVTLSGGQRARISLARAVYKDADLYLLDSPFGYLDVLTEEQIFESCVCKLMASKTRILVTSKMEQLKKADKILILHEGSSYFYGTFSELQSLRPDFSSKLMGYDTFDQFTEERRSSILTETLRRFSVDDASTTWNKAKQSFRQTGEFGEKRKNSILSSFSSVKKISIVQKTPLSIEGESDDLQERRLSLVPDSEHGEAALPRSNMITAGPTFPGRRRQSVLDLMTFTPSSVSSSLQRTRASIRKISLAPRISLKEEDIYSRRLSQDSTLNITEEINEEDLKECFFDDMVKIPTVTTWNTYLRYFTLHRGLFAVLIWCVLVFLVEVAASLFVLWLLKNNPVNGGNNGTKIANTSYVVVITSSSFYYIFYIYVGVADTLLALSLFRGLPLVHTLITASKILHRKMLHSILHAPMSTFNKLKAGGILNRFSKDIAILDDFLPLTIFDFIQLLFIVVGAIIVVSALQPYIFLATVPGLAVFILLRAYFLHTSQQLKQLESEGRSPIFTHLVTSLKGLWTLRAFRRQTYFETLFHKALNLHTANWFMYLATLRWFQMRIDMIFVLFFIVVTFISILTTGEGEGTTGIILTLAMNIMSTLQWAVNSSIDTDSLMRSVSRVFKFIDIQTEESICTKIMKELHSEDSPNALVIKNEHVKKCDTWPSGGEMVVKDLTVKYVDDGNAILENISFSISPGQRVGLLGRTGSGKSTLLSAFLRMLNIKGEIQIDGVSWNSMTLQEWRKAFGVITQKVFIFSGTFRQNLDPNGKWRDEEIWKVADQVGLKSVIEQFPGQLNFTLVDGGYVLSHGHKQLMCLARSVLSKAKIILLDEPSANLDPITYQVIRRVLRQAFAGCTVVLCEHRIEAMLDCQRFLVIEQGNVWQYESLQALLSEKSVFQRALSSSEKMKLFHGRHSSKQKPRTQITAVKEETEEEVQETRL

| fold change (FC) [3] | EC50 [4] [nM] | SMILES | other results |
| --- | --- | --- | --- |
|  |  | CC(C)c1ccc(NC(=O)C(c2ccccc2)N(C)C(=O)Cc2c[nH]c3ccccc23)cc1 (stereo unspecified) | EC50 [1]: 70 nM; Ratio EC50 [2]: 100 |
| 1.7 |  | COc1cc(CNC(=O)c2sc3ccccc3c2OC)cc(OC)c1 |  |
|  | 700 | CCc1ccc(NS(=O)(=O)c2cn(Cc3ccccc3C#N)c3ncccc23)cc1 |  |
|  |  | CN(C(=O)Cc1c[nH]c2ccccc12)[C@H](C(=O)Nc1ccc(F)cc1)c1ccccc1 | EC50 [5]: 90 nM |
|  | 1000 | CCCCCn1cc(S(=O)(=O)Nc2ccc(CC)cc2)c2cccnc21 |  |
|  |  | COc1ccc(CNC(=O)c2sc3ccc(Cl)cc3c2OC)c(OC)c1 | Activity [6]: 50% |
|  | 600 | CCc1ccc(NS(=O)(=O)c2cn(Cc3ccccn3)c3ncccc23)cc1 |  |
|  |  | CN(C(=O)Cc1c[nH]c2ccccc12)[C@H](C(=O)Nc1ccc(-n2cc(CCCF)nn2)cc1)c1ccccc1 | EC50 [5]: 1100 nM |
| 2 |  | COc1c(C(=O)NCc2ccc(F)cc2Cl)sc2ccccc12 |  |
| 2.4 |  | COc1c(C(=O)NCc2ccccc2Br)sc2ccccc12 |  |
